The results in this text go back to patent US9024019B2, “Insecticidal triazinone derivatives” (Syngenta Participations AG, priority 2011, dated 2015).

Broadly, the melting point is the temperature, or range, at which the solid turns liquid.

In the case of `CO/N=C/C1=NNC(=O)N(/N=C/c2cccnc2)C1`, the melting point was in the range of 237 to 238 °C.

In turn, `CO/N=C/C1=NNC(=O)N(/N=C/c2cncc(F)c2)C1` had a melting point of 226 to 227 °C.

Take `CO/N=C/C1=NNC(=O)N(/N=C/c2ccc[n+]([O-])c2)C1`: the melting point is 229 °C (dec.).

Compound `CO/N=C/C1=NNC(=O)N(/N=C/c2cncnc2)C1` registered a melting point of 244 to 245 °C.

As to `CO/N=C/C1=NNC(=O)N(/N=C/c2cnccn2)C1`, the melting point was in the range of 233 to 234 °C.

The compound `CO/N=C(\C)C1=NNC(=O)N(/N=C/c2cccnc2)C1` came in with a melting point of 230 to 231 °C.

The compound `CCO/N=C/C1=NNC(=O)N(/N=C/c2cccnc2)C1` displayed a melting point of 233 to 234 °C.

For the compound `CN(C)/N=C/C1=NNC(=O)N(/N=C/c2cccnc2)C1`, the melting point is 229 °C (dec.).

For `CC1(C)CC(C2=NNC(=O)N(/N=C/c3cccnc3)C2)=NO1`, the melting point is 212 °C (dec.).

For the compound `CC1(C)CC(C2=NNC(=O)N(/N=C/c3cncc(F)c3)C2)=NO1`, the melting point is 260 °C (dec.).

On to `O=C1NN=C(C2=NOC(C(F)(F)F)(C(F)(F)F)C2)CN1/N=C/c1cccnc1`, for which the melting point is 270 °C (dec.).

As for `O=C1NN=C(C2=NOC(C(F)(F)F)(C(F)(F)F)C2)CN1/N=C/c1cncc(F)c1`, the melting point was 290 °C (dec.).
